# Measured values taken from PMC10504495 (iScience, 2023).
# Columns and labels:
# SIRT3 [1] = target: T1, SIRT3 (Homo sapiens, UniProt Q9NTG7); test: HPLC/LC-MS delactylation (erased ratio); assay type: biochemical; conditions: 100 μM peptide, 200 nM SIRT3, 37°C, 3 h; compared with other Sirtuins
# T1 construct: SIRT3 (118–399 aa); 6xHis with TEV site (pET-N-6xHis-TEV vector) (N, cleaved yes); made in house; host or cells: E. coli BL21-CodonPlus (DE3)-RIL
# T1 sequence (Q9NTG7 118-399): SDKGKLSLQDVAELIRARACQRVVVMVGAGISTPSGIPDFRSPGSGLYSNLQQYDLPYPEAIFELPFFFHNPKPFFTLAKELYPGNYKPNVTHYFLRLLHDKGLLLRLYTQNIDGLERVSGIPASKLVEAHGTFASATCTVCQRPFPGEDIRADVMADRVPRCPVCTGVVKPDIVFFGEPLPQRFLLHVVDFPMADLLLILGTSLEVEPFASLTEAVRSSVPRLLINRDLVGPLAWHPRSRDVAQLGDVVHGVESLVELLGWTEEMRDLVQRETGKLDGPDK
# Text: (§1) To prepare for the enzymatic assays and crystallization, the human SIRT1 core region (234–505 aa), SIRT2 (50–356 aa), SIRT5 (32–302), and full-length SIRT7 were cloned into a pET-28a-sumo vector, while SIRT3 (118–399 aa) and full-length SIRT6 were cloned into a pET-N-6xHis-TEV (Tobacco etch virus) vector. These vectors were then transformed and expressed in BL21-CodonPlus (DE3)-RIL competent cells. The recombinant proteins were purified via affinity and ion exchange purification, followed by gel filtration. To remove tags during purification, TEV, and sumo protease were utilized. The purified recombinant human Sirtuins were then concentrated to a final concentration of 10 mg/mL and stored at −80°C freezer for use in the following experiments.
# (§2) LC-MS analysis was performed to test and verify the delactylation activity of Sirtuins. The lactyl peptides used in LC-MS assay was added 2 additional tryptophan residues at the N- and C- terminus to enhance the HPLC absorption sensitiveness. After incubating the peptides with Sirtuins/HDAC3 at 37°C for 3 h. The reaction was halted by methanol, and LC-MS was used to analyze the erased ratio of different peptides.
# SIRT2 [2] = target: T2, SIRT2 (Homo sapiens, UniProt Q8IXJ6); test: HPLC/LC-MS delactylation (erased ratio); assay type: biochemical; conditions: 100 μM peptide, 200 nM SIRT2, 37°C, 3 h
# T2 construct: SIRT2 (50–356 aa); SUMO (pET-28a-sumo vector) (cleaved yes); made in house; host or cells: E. coli BL21-CodonPlus (DE3)-RIL
# T2 sequence (Q8IXJ6 50-356): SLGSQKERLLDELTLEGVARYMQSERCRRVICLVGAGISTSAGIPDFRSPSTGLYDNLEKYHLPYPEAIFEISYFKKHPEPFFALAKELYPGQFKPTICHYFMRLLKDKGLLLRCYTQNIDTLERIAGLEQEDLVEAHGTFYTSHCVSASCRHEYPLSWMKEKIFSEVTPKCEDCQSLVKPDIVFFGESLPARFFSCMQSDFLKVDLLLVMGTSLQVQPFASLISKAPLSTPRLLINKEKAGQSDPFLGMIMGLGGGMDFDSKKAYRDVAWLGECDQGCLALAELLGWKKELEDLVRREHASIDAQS
# Text: as §1, §2
# SIRT1 [3] = target: T3, SIRT1 (Homo sapiens, UniProt Q96EB6); test: HPLC/LC-MS delactylation (erased ratio); assay type: biochemical; conditions: 100 μM peptide, 200 nM SIRT1, 37°C, 3 h
# T3 construct: the human SIRT1 core region (234–505 aa); SUMO (pET-28a-sumo vector) (cleaved yes); made in house; host or cells: E. coli BL21-CodonPlus (DE3)-RIL
# T3 sequence (Q96EB6 234-505): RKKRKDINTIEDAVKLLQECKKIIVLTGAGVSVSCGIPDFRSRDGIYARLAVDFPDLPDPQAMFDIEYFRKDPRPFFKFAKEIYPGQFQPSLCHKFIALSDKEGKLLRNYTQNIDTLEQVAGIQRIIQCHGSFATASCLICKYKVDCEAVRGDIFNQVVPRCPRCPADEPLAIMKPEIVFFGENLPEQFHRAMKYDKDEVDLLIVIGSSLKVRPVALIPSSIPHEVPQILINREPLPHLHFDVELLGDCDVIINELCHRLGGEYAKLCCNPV
# Text: as §1, §2
# SIRT1 [4] = target: T3, SIRT1; test: NAD+ consumption/cycling assay; assay type: biochemical; conditions: overnight (≥12 h)
# Text: as §1
# To screen the delactylation activity of Sirtuins, we employed a modified[35] NAD^+ cycling assay to measure the amount of unused NAD^+ levels after Sirtuins’ consumption reactions. […] The reduced resazurin is then measured as resorufin, which has a high fluorescence characteristic.[36]
# To perform the NAD^+ consumption assay, 50 μM recombinant Sirtuins were co-incubated with 500 μM Kla peptides and 100 μM NAD^+ in […], 20 mM Tris (pH = 7.5) buffer for 3 h or overnight at 37°C. […] Then, the plate was immediately measured by fluorescence spectrophotometer under excitation 549 nm, emission 576 nm condition.
# [5] = absorption/fluorescence spectra of the probe; assay type: physicochemical; conditions: 10 μM probe
# Protocol: (§3) To determine the absorption spectra, 10 μM p-H4K16laNBD was incubated with or without 0.2 μM SIRT3 and 100 μM NAD^+ for 2 h in 20 mM HEPES buffer (pH = 8.0). For the fluorescence assay, the fluorescence was detected using an excitation wavelength of 480 nm, and the emitted fluorescence signal was measured over the range of 520–740 nm using a microplate reader (Molecular Devices SpectraMax ID5 Microplate Reader).
# SIRT3 [6] = target: T1, SIRT3; test: fluorogenic probe delactylation assay; assay type: biochemical
# Protocol: as §3
# (§4) For the HPLC analysis, we incubated 10 μM p-H4K16laNBD with 0.2 μM SIRT3 and 100 μM NAD^+ in 20 mM HEPES buffer (pH = 8.0) for 2 h. We also performed time-dependent fluorescence measurements by incubating 10 μM p-H4K16laNBD with 0.2 μM SIRT3 and 100 μM NAD^+ or 0.1 μM HDAC3 in 20 mM HEPES buffer (pH = 8.0) for different time intervals. The fluorescence was measured using an excitation wavelength of 480 nm, and the emitted fluorescence signal at 550 nm was measured using a microplate reader (Molecular Devices SpectraMax ID5 Microplate Reader).
# (§5) To determine the fluorescence change after incubating p-H4K16laNBD with various enzymes (HDAC3, SIRT1-3, SIRT5-7), we incubated 10 μM p-H4K16laNBD with 0.2 μM SIRT1-7 (except SIRT4) in 20 mM HEPES buffer (pH = 8.0) containing 100 μM NAD^+ for 2 h. For positive control, we used 0.1 μM HDAC3. The fluorescence was measured using an excitation wavelength of 480 nm, and the emitted fluorescence signal at 550 nm was measured using a microplate reader (Molecular Devices SpectraMax ID5 Microplate Reader).
# HDAC3 = target: T4, HDAC3 (Homo sapiens, UniProt O15379); test: fluorogenic probe delactylation assay; assay type: biochemical; conditions: 10 μM probe
# T4 construct: purchased Abcam ab42631
# Protocol: as §3, §4, §5
# SIRT7 = test: fluorogenic probe delactylation assay; assay type: biochemical, human; conditions: 10 μM probe, 100 μM NAD+, HEPES pH 8.0, 37°C, 2 h
# Protocol: as §5
# SIRT6 = test: fluorogenic probe delactylation assay; assay type: biochemical, human; conditions: 10 μM probe, 100 μM NAD+, HEPES pH 8.0, 37°C, 2 h
# Protocol: as §5
# SIRT5 = test: fluorogenic probe delactylation assay; assay type: biochemical, human; conditions: 10 μM probe, 100 μM NAD+, HEPES pH 8.0, 37°C, 2 h
# Protocol: as §5
# SIRT2 [7] = target: T2, SIRT2; test: fluorogenic probe delactylation assay; assay type: biochemical; conditions: 10 μM probe, 100 μM NAD+, HEPES pH 8.0, 37°C, 2 h
# Protocol: as §5
# SIRT1 [8] = target: T3, SIRT1; test: fluorogenic probe delactylation assay; assay type: biochemical; conditions: 10 μM probe, 100 μM NAD+, HEPES pH 8.0, 37°C, 2 h
# Protocol: as §5
# lysine lactylation = conditions: cells, 24 h treatment; cited from earlier work
# Text: Chemical affinity-based probes are powerful tools that convert weak protein-ligand interactions into robust covalent chemical linkages, thus enabling the capture of transient interactions. […] We tried to use this la ...
# [9] = target: human SIRT1 core region (234-505 aa) (human) (UniProt Q96EB6); test: ITC; 40 uL of 2 mM peptide in 20 injections titrated into 200 uL of 30 uM Sirtuin in the cell; 25 C; Tris pH 7.5, 150 mM NaCl; MicroCal PEAQ-ITC analysis software
# [10] = target: human SIRT2 (50-356 aa) (human) (UniProt Q8IXJ6); test: as above
# SIRT3 [11] = target: T1, SIRT3; test: NAD+ consumption/cycling assay; assay type: biochemical; conditions: for delactylation activity in words: NAD+ consumption/cycling, 3 h, Figures 1A, S2
# Protocol: To screen the delactylation activity of Sirtuins, we employed a modified[35] NAD^+ cycling assay to measure the amount of unused NAD^+ levels after Sirtuins’ consumption reactions. This assay involves the conversion of NAD^+ to NADH by alcohol dehydrogenase, followed by the conversion of NADH to NAD^+ by NADH oxidoreductase, diaphorase with resazurin as an electron acceptor. The reduced resazurin is then measured as resorufin, which has a high fluorescence characteristic.[36]
# To perform the NAD^+ consumption assay, 50 μM recombinant Sirtuins were co-incubated with 500 μM Kla peptides and 100 μM NAD^+ in 150 NaCl, 20 mM Tris (pH = 7.5) buffer for 3 h or overnight at 37°C. Then, hydrochloric acid, final concentration at 150 mM, was added to terminate the reaction. As for the cycling assay, 200 μL reaction buffer containing 100 mM Na2HPO4 (pH = 8.0), 10 μM resazurin, 10 μM flavin mononucleotide (FMN), 1% absolute ethanol, 66.5 μg/mL alcohol dehydrogenase and 5 μg/mL diaphorase was simultaneously mixed with 10 μL of NAD^+ consumption mixtures in 96-well white plate. Then, the plate was immediately measured by fluorescence spectrophotometer under excitation 549 nm, emission 576 nm condition.
# SIRT3 [12] = target: T1, SIRT3; test: Kinetic study by HPLC, Lineweaver-Burk; assay type: biochemical; conditions: 10-200 μM peptide, 200 nM SIRT3, Tris pH 7.4, 37°C, 40 min, HPLC 280 nm, 3 replicates
# Text: as §1
# To perform the kinetic study, the erasing rate was determined using the HPLC method. The KM and kcat values were then computed using the Lineweaver-Burk method.[37] […] The erased rate was evaluated by HPLC, and integrations at 280 nm were recorded to give the erased ratio. The kinetic parameters were then obtained using the formula: 1/v=(KM/Vmax)(1/[S])+1/Vmax .
# HDAC3/NCOR2 = test: HPLC/LC-MS delactylation (erased ratio); assay type: biochemical; conditions: 100 μM peptide, 200 nM HDAC3/NCOR2, 37°C, 3 h; in comparison with Sirtuins
# Protocol: as §2
# T4 sequence (O15379 whole entry): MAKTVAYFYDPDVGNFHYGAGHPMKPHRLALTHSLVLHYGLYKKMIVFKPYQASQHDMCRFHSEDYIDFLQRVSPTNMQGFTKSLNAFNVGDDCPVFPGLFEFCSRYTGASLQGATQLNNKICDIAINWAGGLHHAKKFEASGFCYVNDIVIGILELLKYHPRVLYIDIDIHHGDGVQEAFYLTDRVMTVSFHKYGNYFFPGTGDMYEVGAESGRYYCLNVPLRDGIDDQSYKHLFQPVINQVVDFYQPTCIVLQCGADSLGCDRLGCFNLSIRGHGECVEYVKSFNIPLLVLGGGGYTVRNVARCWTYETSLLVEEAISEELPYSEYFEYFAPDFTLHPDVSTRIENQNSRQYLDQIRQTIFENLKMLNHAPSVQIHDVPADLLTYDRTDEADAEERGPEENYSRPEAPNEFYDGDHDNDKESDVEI
# T4 sequence (Q9Y618 395-489 partner limits assumed): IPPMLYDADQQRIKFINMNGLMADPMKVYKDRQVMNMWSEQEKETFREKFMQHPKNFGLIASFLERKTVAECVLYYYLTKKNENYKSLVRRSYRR
molecule,measurement,setting,value
"WKGLGK (L/D-lactic acid) GGAKW [H4K12la, lactyl-lysine H4K12 peptide]","erased ratio / hydrolytic activity, HPLC",SIRT3 [1],didn’t show any hydrolytic activity
same,"hydrolytic activity, HPLC",SIRT2 [2],didn’t show any hydrolytic activity
same,"hydrolytic activity, HPLC",SIRT1 [3],didn’t show any hydrolytic activity
"QTARK (L/D lactic acid) STGG [H3K9la, lactyl-lysine H3K9 peptide; Trp-flanked version used in HPLC-MS]","hydrolytic activity, HPLC",SIRT1 [3],slight hydrolytic activity
same,NAD+ consumption overnight in words,SIRT1 [4],consumed much higher level of NAD^+
"GGAK(lac)RHRPra-NH2 [p-H4K16laNBD, H4K16la based fluorogenic probe with O-NBD (nitrobenzofurazan) group conjugated to the C-terminus]",new absorption peak after enzymatic reaction,"[5]; 0.2 μM SIRT3, 100 μM NAD+, 2 h, HEPES pH 8.0",482 nm
same,absorption peak,"[5]; 20 mM HEPES pH 8.0, without enzyme",around 370 nm
same,fluorescence emission peak after incubation with SIRT3 and NAD+,"[5]; λex 480 nm, 0.2 μM SIRT3, 100 μM NAD+",550 nm
same,"first-order rate constant k, SIRT3","SIRT3 [6]; 10 μM probe, 0.2 μM SIRT3, 100 μM NAD+, 20 mM HEPES pH 8.0, λex 480, λem 550 nm",0.0059 min⁻¹
same,"fluorescence response, SIRT3","SIRT3 [6]; 10 μM probe, SIRT3, 100 μM NAD+, HEPES pH 8.0, 37°C, 2 h",fluoresced at 550 nm
same,fluorescence with sole NAD+ or denatured SIRT3,SIRT3 [6]; control groups,will not affect the fluorescence generating
same,"first-order rate constant k, HDAC3","HDAC3; 0.1 μM HDAC3, 20 mM HEPES pH 8.0, λex 480, λem 550 nm",0.0102 min⁻¹
same,"fluorescence response, HDAC3","HDAC3; 0.1 μM HDAC3, HEPES pH 8.0, 37°C, 2 h",fluoresced at 550 nm
same,"fluorescence response, SIRT7",SIRT7,minimal changes in fluorescence
same,"fluorescence response, SIRT6",SIRT6,minimal changes in fluorescence
same,"fluorescence response, SIRT5",SIRT5,minimal changes in fluorescence
same,"fluorescence response, SIRT2",SIRT2 [7],minimal changes in fluorescence
same,"fluorescence response, SIRT1",SIRT1 [8],minimal changes in fluorescence
CC(O)C(=O)[O-].[Na+] (stereo not shown) [sodium lactate],induction of lysine lactylation,lysine lactylation,will induce detectable levels of lysine lactylation
H3K9ac peptide,Kd,[9],92.3 µM
same,Kd,[10],42.2 µM
"WKQLATK (L/D-lactic acid) AARKW [H3K23la, lactyl-lysine H3K23 peptide]",delactylation activity in words,SIRT3 [11],higher delactylation activity
"KGGAK (L/D lactic acid) RHRK [H4K16la, lactyl-lysine H4K16 peptide; NAD+ assay and ITC]","hydrolytic activity, HPLC",SIRT1 [3],slight hydrolytic activity
same,delactylation activity in words,SIRT3 [11],higher delactylation activity
same,NAD+ consumption overnight in words,SIRT3 [11]; overnight (≥12 h),consumed much higher level of NAD^+
same,kcat,SIRT3 [12],0.08 ± 0.008 s⁻¹
same,Vmax,SIRT3 [12]; Lineweaver-Burk,0.925 ± 0.101 µmol/L/min
same,"in vitro delactylation activity, HPLC",HDAC3/NCOR2,highest in vitro delactylation activity
